Results taken from patent publication US20190358247A1 (The Medical College of Wisconsin, Inc., priority 2016, published 2019).
Like-named read-outs stand apart in the source and are kept apart here.

How the values were obtained:
[1] = system: MiaPaCa-2 cells; experiment: Sytox Green cytotoxicity assay; assay type: cell-based; conditions: 100 μM, 24 h
Protocol: Cytotoxicity assay. To determine the cytotoxicity of Mito-Met analogs and other TPP^+-conjugated to a long chain aliphatic hydrocarbon, we used the Sytox assay as described previously. MiaPaCa-2 cells were treated for 24 h, and dead cells were monitored in the presence of 200 nM Sytox Green (Invitrogen). The Sytox method labels the nuclei of dead cells yielding green fluorescence. Fluorescence intensities from the dead cells in 96-well plate were acquired in real time every 15 min after 4 h using a plate reader (BMG Labtech, Inc.) equipped with an atmosphere controller set at 37° C. and 5% CO2:95% air, using a fluorescence detection with 485 nm (excitation) and 535 nm (emission). To measure the total cell number, all of the samples in each treatment group were permeabilized by adding Triton X 100 (0.065%) in the presence of Sytox Green for 3 h, and maximal fluorescence intensities were taken as 100%. Data are represented as a percentage of dead cells after normalization to total cell number for each group.
Induction of cell death was monitored by Sytox Green staining, as shown previously. MiaPaCa-2 cells were treated with Mito-Met10 (100 μM), Mito-CP (100 μM), or Met (30 mM) and other controls for 24 h and cell death was measured in real time.

[2] = system: MiaPaCa-2 cells; experiment: Oxygen consumption rate in intact cells, Seahorse XF96; assay type: cell-based, human
Protocol: (§1) Respiratory enzyme activity in intact and permeabilized cells. The mitochondrial function in intact and permeabilized pancreatic cancer cells was measured using a Seahorse XF96 Extracellular Flux Analyzer (Seahorse Bioscience, North Billerica, Mass., USA). Unless specified otherwise, assays in intact cells were performed as previously described. Measurement of mitochondrial respiratory complexes in permeabilized cells was performed according to the manufacturer's instructions (Seahorse Bioscience). Briefly, intact cells were permeabilized using 1 nM Plasma Membrane Permeabilizer (PMP, Seahorse Bioscience) immediately before oxygen consumption rate (OCR) measurement by XF96. The oxygen consumption derived from mitochondrial complex I or complex II activity was measured by providing different substrates to mitochondria, e.g., pyruvate/malate for complex I and succinate for complex II activity. Rotenone, malonate and antimycin A were used as specific inhibitors of mitochondrial complex I, II and III activities, respectively.
Effects of Met and Mito-Met analogs on mitochondrial bioenergetics in MiaPaCa-2 cells. The oxygen consumption rate (OCR) and the extracellular acidification rate (ECAR) were measured as a readout of mitochondrial function and glycolysis using a Seahorse Bioscience XF96 extracellular flux analyzer. We compared the immediate OCR changes in response to different concentrations (e.g., IC50 or higher values determined by clonogenic assay) of Met, Mito-Met2, Mito-Met6, Mito-Met10, and phenformin (FIG. 13A).
Next we monitored the mitochondrial OCR changes in MiaPaCa-2 cells after 24 h treatment with Met, Mito-Met analogs, and phenformin followed by a washout of the treatments and return to fresh cell culture media.

[3] = system: MiaPaCa-2 cells; experiment: Radiosensitization, clonogenic survival after X-radiation; assay type: cell-based, human; conditions: 24 h pretreatment (1 mM Met, 1 μM Mito-Met) before X-radiation
Protocol: MiaPaCa2 cells (1000 cells/well) were cultured in quadruplicate overnight in 96-well plates and changed to fresh medium.
Radiation experiments. […] The cells were then treated with X-radiation at a dose of 0, 2, 4, and 6 Gy. The control cells were treated with the same concentration of vehicle (0.1% DMSO) where appropriate. After irradiation, cells were suspended and seeded at various densities (100-8,000 cells per well) in 6-well plates for clonogenic assay as described above. The plates were kept within the incubator and media changed every 3-4 days for 2 weeks. Wells with 10-50 sufficiently large clones were chosen for calculating the cell survival fractions.
Effect of Mito-Met and Met on PDAC radiosensitivity. Both control cells and cells were pretreated for 24 h with 1 mM Met or Mito-Met (1 μM) prior to X-radiation. Cell survival was measured by a clonogenic assay.

[4] = biological target: mitochondrial complex I (Homo sapiens, UniProt O75251+O75306+P03886); experiment: Complex I oxygen consumption (pyruvate/malate) in permeabilized cells, Seahorse XF96; assay type: cell-based; set-up: IC50, complex I oxygen consumption; other: permeabilized MiaPaCa-2, added acutely; conditions: permeabilized MiaPaCa-2, added acutely
Sequence of mitochondrial complex I (P03886 whole entry): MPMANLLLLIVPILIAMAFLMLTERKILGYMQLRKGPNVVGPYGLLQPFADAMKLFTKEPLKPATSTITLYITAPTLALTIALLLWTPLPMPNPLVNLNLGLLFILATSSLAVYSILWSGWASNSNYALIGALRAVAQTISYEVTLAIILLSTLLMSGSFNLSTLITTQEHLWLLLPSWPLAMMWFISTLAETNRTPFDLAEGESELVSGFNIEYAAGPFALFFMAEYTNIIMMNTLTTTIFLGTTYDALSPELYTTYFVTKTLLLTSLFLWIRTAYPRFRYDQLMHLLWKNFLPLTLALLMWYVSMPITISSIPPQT
Sequence of mitochondrial complex I (O75251 39-213): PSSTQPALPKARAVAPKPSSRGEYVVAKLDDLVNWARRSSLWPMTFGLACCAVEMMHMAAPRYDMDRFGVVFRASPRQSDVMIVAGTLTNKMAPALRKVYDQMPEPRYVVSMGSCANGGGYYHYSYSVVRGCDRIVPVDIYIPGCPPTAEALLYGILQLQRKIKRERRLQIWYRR
Sequence of mitochondrial complex I (P03897 whole entry, further chain): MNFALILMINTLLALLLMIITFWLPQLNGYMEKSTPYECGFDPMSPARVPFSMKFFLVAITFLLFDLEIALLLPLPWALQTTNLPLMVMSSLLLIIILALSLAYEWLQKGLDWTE
Sequence of mitochondrial complex I (O75306 34-463): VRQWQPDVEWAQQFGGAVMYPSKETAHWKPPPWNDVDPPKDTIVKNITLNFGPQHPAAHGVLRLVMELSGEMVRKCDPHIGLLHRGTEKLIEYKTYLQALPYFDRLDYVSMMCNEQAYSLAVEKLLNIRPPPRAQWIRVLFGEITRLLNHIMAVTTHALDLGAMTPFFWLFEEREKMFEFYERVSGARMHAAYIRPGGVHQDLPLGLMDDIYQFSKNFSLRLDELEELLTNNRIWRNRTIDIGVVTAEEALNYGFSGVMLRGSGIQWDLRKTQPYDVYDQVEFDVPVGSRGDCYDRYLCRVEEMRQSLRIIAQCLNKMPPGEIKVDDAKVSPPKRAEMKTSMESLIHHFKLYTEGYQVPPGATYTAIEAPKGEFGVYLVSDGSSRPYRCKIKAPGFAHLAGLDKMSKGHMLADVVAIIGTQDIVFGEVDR
Sequence of mitochondrial complex I (O75489 37-264, further chain): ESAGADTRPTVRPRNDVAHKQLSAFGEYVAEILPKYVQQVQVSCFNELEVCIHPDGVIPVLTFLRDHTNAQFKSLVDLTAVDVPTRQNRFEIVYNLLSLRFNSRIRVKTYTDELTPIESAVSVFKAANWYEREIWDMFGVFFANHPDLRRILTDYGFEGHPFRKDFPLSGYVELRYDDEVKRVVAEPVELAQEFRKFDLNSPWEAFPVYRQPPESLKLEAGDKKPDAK
Protocol: as §1
The oxygen consumption rate was measured using the permeabilized MiaPaCa-2 cells in MAS buffer supplemented with pyruvate. The use of permeabilized cells avoids differences in cellular uptake of compounds. […] We tested the effect of pretreating cells with Mito-Met10 or Met using the permeabilized model. MiaPaCa-2 cells were treated with Met and Mito-Met10 for 24 h and the oxygen consumption studies were performed in these cells after permeabilization.

[5] = system: HaCaT; experiment: IncuCyte cell confluence assay, keratinocytes; assay type: cell-based
Protocol: (§2) IncuCyte Analyzer-real time measurement of cell proliferation. The cell proliferation was measured using a label-free, noninvasive cellular confluence assay by IncuCyte Live-Cell Imaging Systems (Essen Bioscience, Ann Arbor, Mich., USA; IncuCyte FLR). This system enables collection of live cell images at 2 h intervals over several days. The IncuCyte Analyzer provides real-time cellular confluence data based on segmentation of high-definition phase-contrast images. The cell proliferation is expressed as an increase in percentage of cell confluence.

[6] = system: MCF-10A; experiment: IncuCyte cell confluence assay, nonmalignant breast epithelial cells; assay type: cell-based
Protocol: as §2

[7] = system: MiaPaCa-2 cells; experiment: Intracellular uptake by LC-MS/MS; conditions: MiaPaCa-2, 1 μM, 1 h
Protocol: Cells were grown on 10 cm dishes and treated with the compounds for 24 h in full media.
Next we investigated the relative uptake of different Mito-Met analogs (Mito-Met2, Mito-Met6, and Mito-Met10) and phenformin in MiaPaCa-2 cells (FIG. 12D). Cells were treated with respective Mito-Met analog (1 μM) for 1 h. Cells were lysed after washing and analyzed for Mito-Met analog by LC-MS.

[8] = mouse, in vivo
Protocol: In an initial proof-of-concept experiment, syngeneic KPC cells expressing Firefly luciferase (FC1242-luc) were orthotopically implanted to the pancreas of C57BL/6 mice and tumor growth monitored using bioluminescence imaging (FIG. 15F). Mice orthotopically autografted with FC1242-luc cells were treated daily with 1 mg/kg or 150 mg/kg Met, or 1 mg/kg Mito-Met. […] Serum from these animals was collected, and hepatic and kidney toxicity tested using standard AST, ALT, AP, and BUN assays, respectively.

[9] = system: MiaPaCa-2 cells; experiment: Clonogenic (colony formation) assay; assay type: cell-based, human
Protocol: Clonogenic assay. […] The plates were kept within the incubator and media changed every 3-4 days until the control cells formed sufficiently large clones. The cell survival fractions were calculated as previously described.
MiaPaCa-2 cells were treated with a range of concentrations as shown (FIG. 10C), and the number of colonies formed were counted.

## CC1(C)CC(OCCCCC[P+](c2ccccc2)(c2ccccc2)c2ccccc2)CC(C)(C)N1[O].[Br-] [Mito-Tempol, reference compound]
[1]
  cell death, Sytox Green staining: considerably more cytotoxic

## Br.N=C(N)NC(=N)NCC[P+](c1ccccc1)(c1ccccc1)c1ccccc1 [Mito-Met2]
[2]; 24 h treatment, washout
  concentration at which OCR was inhibited: 25 µM

## CN(C)C(=N)N=C(N)N [Metformin, metformin, reference compound]
[3]
  radiosensitization: increased radiosensitization
[4]
  concentration at which OCR was inhibited: 3,000 μM
[2]; OCR measured immediately after addition
  concentration decreasing oxygen consumption: 1 to 10 mM
[5]
  effect on cell confluence: not significantly affected
[6]
  effect on cell confluence: not significantly affected
[7]
  cellular uptake compared with phenformin: considerably lower than phenformin
[8]; 1 mg/kg
  Kidney BUN: 30 ± 7 mg/dL
  Liver ALT: 35 ± 15 IU/L
  Liver AST: 189 ± 117 IU/L
[8]; 150 mg/kg
  Kidney BUN: 22 ± 2 mg/dL
  Liver ALT: 19 ± 3 IU/L
  Liver AST: 127 ± 24 IU/L
[9]; 3 mM, 24 h
  colony formation: Almost no colony formation
[9]; read-out: IC50, colony formation / survival fraction, MiaPaCa-2, 24 h treatment
  IC50: 1.3 mM

## [H]/N=C(/N)N/C(=N/[H])NCCc1ccccc1 [phenformin, reference compound]
[2]; immediate
  concentration inhibiting OCR to the same extent as Met: ten-fold lower concentration
